pIC50: −log10 of the molar value. Where “and” joins values, the source holds several entries; their conditions need not be identical. Equal values may be shown once.
Tests used:
C. elegans [1] = test: Lifespan of C. elegans fed on E. coli cultured with dapsone; type: in vivo, Caenorhabditis elegans; parameters: Mean lifespan (Mean ± SE): unit not given beside the values
Protocol: In order to identify the effect of dapsone on the extending of lifespan, the experiment was performed in the following order. At this time, since dapsone is not a water-soluble material, E. coli was cultured in the medium including dapsone and then was used as a feed for C. elegans. […] generation, and the experiment was performed as follows under the condition of 20° C. in order to provide the optimal growth environment: 1) A parent C. elegans of L4 stage was transferred to the medium containing dapsone and PABA, and the progeny of first generation was transferred to the new medium after four days to lay an egg for 4 to 5 hours. […] C. elegans, which […], was excluded from the statistical analysis. […] The significant difference of statistical average lifespan used Log-rank test.

C. elegans [2] = test: Vitality (movements) of worms at 23 days; type: in vivo; conditions: 23 days after adult; FIG. 4
Excerpt: At this time, the arrows indicate the initial positions of worms.

C. elegans [3] = test: Oxygen uptake rate of C. elegans (Clark-type oxygen electrode); type: in vivo; conditions: C. elegans treated with DDS; FIG. 10
Protocol: The oxygen uptake rate was measured by using the method disclosed in the theses (50, 51) using Clark-type oxygen electrode (782 Oxygen Meter, Strathkelvin Instruments, Glasgow, UK). […] Approximately 1500 C. elegans in 200 uL of S-basal buffer were added to Mitocell chamber with Clark-type oxygen electrode to measure the oxygen uptake rate for several minuets. A sample was carefully taken from the chamber and then twice homogenized at 5000 rpm for 20 seconds by using Precellys24 homogenizer with glass bead. The sample was centrifuged at 15000 g for 20 minutes and the protein in the supernatant was quantified by using BCA protein quantification kit.

H2O2 = test: Hydrogen peroxide by Amplex Red assay in paraquat-treated C. elegans; type: in vivo; conditions: 250 mM paraquat for 1 hour; FIG. 11
Protocol: The effect of dapsone on ROS scavenging was measured by using Amplex Red hydrogen peroxide/peroxygenase detection kit (Molecular Probes, Eugene, Oreg.) [39] that were previously described in order to measure the effect of dapsone on ROS scavenging. Simply put, 150 C. elegans that fed only on PABA or fed on PABA and dapsone was treated with 250 mM of paraquat for 1 hour. 100 C. elegans were adjusted to be 50 ul at 96-well plate and then 50 ul of Amplex Red (200 uM) was added to each well. After maintaining at 22° C. for 90 minutes, the amount of hydrogen peroxide was measured at 540 nm of absorbance by using a plate reader (Tecan, infinite 200).

C. elegans [4] = test: Oxidative stress resistance test, survival in 250 mM paraquat; type: in vivo; conditions: PQ 250 mM; compared with control C. elegans; FIG. 12
Protocol: C. elegans at 5 days after administrating dapsone for second generations was used for testing an oxidative stress resistance by dapsone. 250 mM of paraquat was dissolved in M9 solution and then 20 C. elegans was immersed into the above solution. The number of living C. elegans was measured per an hour.

autophagy = test: Autophagy genes RT-PCR and GFP::lgg-1 immune blot in C. elegans; type: in vivo; conditions: after treating with DDS
Protocol: All the results are summarized from three independent experiments.
Total RNA was isolated by using TRI reagent available from MRC Company and first cDNA strain was synthesized by using Oligo-dT and Superscript II Reverse Transcriptase (available from Invitrogen Company). The gene amplification (PCR) was performed by using PCR Master Mix (Genenmed) and as the base sequence of the primer, ceDuox1; 5′-[…]-3′ (Forward Primer) and 5′-[…]-3′ (Reverse Primer), actin 5′-[…]-3′ (Forward Primer) and 5′-[…]-3′ (Reverse Primer) were used.
In addition, the gene related to the autophagy used the primer as follows: […]

PKCβ = test: PKC phosphorylation induced by PQ, Western blot; type: cell-based; conditions: human diploid fibroblast; 1 mM PQ; FIG. 28
Protocol: (§1) The isolated sample was transferred to a nitrocellulose and analyzed through Western Blot using MS601 (Total OXPHOS Complexes Detection Kit, MitoSciences, containing antibodies against SDH30 subunit of complex II (5 μg/ml), Core2 subunit of complex III (0.2 μg/ml), COXII subunit of complex IV (2 μg/ml), and subunit α of F1-ATPase of complex V (0.2 μg/ml)), PCKpan-p, PCKα/β-p, PKCδ-p (Phospho-PKC antibody Sampler Kit, Cell Signaling Technology), PKC α, PCKβ, PKCδ (Life Technologies), β-Actin (Sigma), and the like. The measurement was performed by using a horseradish peroxygenase-conjugated secondary antibodies (Zymed) and ECL (Pierce). The results were shown through visualizing by using Autoradiographic film (Image Reader, LAS-3000Fujifilm, Japan).

mitochondria complex = test: Mitochondria complex protein amount by Western blot in PQ-treated human diploid fibroblast; type: cell-based; conditions: 1 mM PQ 24 hours, FIG. 29A
Protocol: (§2) The protein amount of mitochondria constituent complex was measured by using Western Blot using Complex I (20 kDa ND6 subunit), Complex II (30 kDa FeS, non-heme iron protein, SDHB), Complex III (47 kDa core protein 2), Complex IV (18 kDa subunit IV), Complex V (55 kDa subunit a ATP synthase), and the like. […] The membrane potential (Δψm) of mitochondria used DiOC6. […] Since then, the above fibroblast was treated with 40 nM of DiOC6 for 15 minutes. The results were measured by using Cary Eclipse Fluorescence Spectrophotometer (Varian, Calif., USA) and the excitation wavelength and emission wavelength were measured at 480 nm and 520 nm, respectively.
as §1, with “The measurement was performed by using a horseradish peroxygenase-conjugated secondary antibodies (Zymed) and ECL (Pierce).” left out

[5] = system: membrane potential of mitochondria; test: Membrane potential of mitochondria, DiOC6 assay; type: cell-based, human; conditions: pretreated with DDS (3 hours) or DPI (30 minutes), then 1 mM PQ 24 hours; FIG. 29B
Protocol: as §2
The change of membrane potential (Δψm) of mitochondria was measured by using a cationic dye, DiOC6 that is a specific fluorescent material for mitochondria. An aspect of the change was measured by using Fluorescence Spectrophotometer. The cell was cultured in 40 nM DiQC6 for 15 minutes and then the fluorescent material that was left was removed by using PBS. The analysis was performed by using Cary Eclipse fluorescence spectrophotometer (Varian, Calif., USA), and then the excitation wavelength was measured at 480 nm, and the emission wavelength was measured at 520 nm.

human diploid fibroblast = test: Growth suppression of human diploid fibroblast by DDS (data not shown); type: cell-based; conditions: read-out: DDS concentration that can suppress 50% growth of human diploid fibroblast (1050)

Structure (SMILES): Nc1ccc(S(=O)(=O)c2ccc(N)cc2)cc1 [DDS, 4,4′-diaminodiphenylsulfone]
- average lifespan and maximum lifespan compared with the control (C. elegans [1]; DDS after L4-stage and during the whole life, FIG. 3A, B): significantly increased
- Mean lifespan (Mean ± SE) (C. elegans [1]; strain N2, OP50 + PABA + DDS (2 mM) after L4 stage, Figure 1B, four trials): 23.04 ± 0.7 and 34.26 ± 0.8 and 23.76 ± 0.6 and 18.87 ± 0.4
- Mean lifespan (Mean ± SE) (C. elegans [1]; strain N2, OP50 + PABA + DDS (2 mM) in the whole life, Figure 1A, two trials): 23.07 ± 0.5 and 24.31 ± 0.6
- Mean lifespan (Mean ± SE) (C. elegans [1]; strain N2, OP50 + PABA + DDS, Figure 3F, two trials): 23.72 ± 0.7 and 19.74 ± 0.6
- Mean lifespan (Mean ± SE) (C. elegans [1]; strain N2, feeding OP50 + 0.5 mM DDS, Figure S7): 22.03 ± 0.6
- Mean lifespan (Mean ± SE) (C. elegans [1]; strain N2, feeding OP50 + 1 mM DDS, Figure S7): 22.20 ± 0.6
- Mean lifespan (Mean ± SE) (C. elegans [1]; strain N2, feeding folP + DDS (bacteria lacking folP), Figure S2, three trials): 16.90 ± 0.3 and 17.43 ± 0.4 and 17.87 ± 0.4
- Mean lifespan (Mean ± SE) (C. elegans [1]; strain daf-16(cf1038), OP50 + PABA + DDS (2 mM), Figure 2A, two trials): 15.69 ± 0.5 and 17.40 ± 0.3
- Mean lifespan (Mean ± SE) (C. elegans [1]; strain pyk-1(ok1754), OP50 + PABA + DDS, Figure 3F, two trials): 21.92 ± 0.8 and 23.37 ± 0.6
- movement of worms (C. elegans [2]): more strong active movement
- oxygen uptake rate (C. elegans [3]): meaningfully decreased
- ROS (H2O2) generation by PQ (H2O2): meaningfully suppresses
- survival rate in NGM liquid medium containing PQ (C. elegans [4]): significantly increased
- genes relevant to the autophagy, transcription level (autophagy; RT-PCR, FIG. 21A): not changed
- LGG-1 marker protein of the autophagy (autophagy; immune blot, FIG. 21B): not increased
- PKCβ phosphorylation (activity) increased by PQ (PKCβ): reduced
- amount of mitochondria complex reduced by PQ (mitochondria complex): recover
- decrease of membrane potential induced by PQ [5]: meaningfully maintained
- pIC50 (human diploid fibroblast): ~3.13

Reference: US20110152379A1, “COMPOSITION FOR CONTROL OF AGING AND/OR EXTENSION OF LIFE, CONTAINING DAPSONE AS ACTIVE INGREDIENT” (priority 2008, published 2011)
